Test results taken from patent US20230416258A1, “BENZ[…], AND PREPARATION METHOD THEREFOR AND USE THEREOF” (CHINA PHARMACEUTICAL UNIVERSITY, priority 2020, published 2023).

The molecules below were run on KM mice (assay: Test for drug-induced disappearance of righting reflex in mice). Conditions: 30 mg/kg, single rapid bolus via tail vein.
Type: in vivo
Summary of the method: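 Female KM mice (18–25 g), randomly grouped, given a single rapid bolus via tail vein. Latency (administration to loss of righting reflex) and duration (loss to recovery) recorded.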
In the case of COC(=O)CC[C@@H]1N=C(c2ccccc2Cl)c2cc(Cl)ccc2-n2c(SC3CCN(C)CC3)nnc21 [Compound 93, methyl (S)-3-(8-chloro-6-(2-chlorophenyl)-1-((1-methylpiperidin-4-yl)thio)-4H-benzo[f][1,2,4]triazolo[4,3-a][1,4]diazepin-4-yl)propionate], the Duration was 12.41 min and the Latency was 0.58 min. Molecule COC(=O)CC[C@@H]1N=C(c2ccccc2Cl)c2cc([N+](=O)[O-])ccc2-n2c(SC3CCN(C)CC3)nnc21 [Compound 95, methyl (S)-3-(8-nitro-6-(2-chlorophenyl)-1-((1-methylpiperidin-4-yl)thio)-4H-benzo[f][1,2,4]triazolo[4,3-a][1,4]diazepin-4-yl)propionate] has a Duration of 12.41 min and a Latency of 0.82 min. Work on COC(=O)CC[C@@H]1N=C(c2ccccc2Cl)c2cc(Cl)ccc2-n2c(SCCCN3CCN(CCO)CC3)nnc21 [Compound 96, methyl (S)-3-(8-chloro-6-(2-chlorophenyl)-1-((3-(4-(2-hydroxyethyl)piperazin-1-yl)propyl)thio)-4H-benzo[f][1,2,4]triazolo[4,3-a][1,4]diazepin-4-yl)propionate] yielded a Duration of 7.98 min and a Latency of 0.49 min. COC(=O)CC[C@@H]1N=C(c2ccccc2Cl)c2cc([N+](=O)[O-])ccc2-n2c(SCCCN3CCN(CCO)CC3)nnc21 [Compound 98, methyl (S)-3-(8-nitro-6-(2-chlorophenyl)-1-((3-(4-(2-hydroxyethyl)piperazin-1-yl)propyl)thio)-4H-benzo[f][1,2,4]triazolo[4,3-a][1,4]diazepin-4-yl)propionate] was tested, and the Duration was 14.71 min and the Latency was 1.31 min. Work on COC(=O)CC[C@@H]1N=C(c2ccccc2Cl)c2cc(Br)ccc2-n2c(SCN3CCOCC3)nnc21 [Compound 100, methyl (S)-3-(8-bromo-6-(2-chlorophenyl)-1-((morpholinomethyl)thio)-4H-benzo[f][1,2,4]triazolo[4,3-a][1,4]diazepin-4-yl)propionate] yielded a Duration of 9.75 min and a Latency of 0.64 min. COC(=O)CC[C@@H]1N=C(c2ccccc2Cl)c2cc([N+](=O)[O-])ccc2-n2c(SCN3CCOCC3)nnc21 [Compound 101, methyl (S)-3-(8-nitro-6-(2-chlorophenyl)-1-((morpholinomethyl)thio)-4H-benzo[f][1,2,4]triazolo[4,3-a][1,4]diazepin-4-yl)propionate] showed a Duration of 12.05 min and a Latency of 0.85 min. With COC(=O)CC[C@@H]1N=C(c2ccccc2)c2cc(Br)ccc2-n2c(SC)nnc21 [Compound 103, methyl (S)-3-(8-bromo-1-(methylthio)-6-phenyl-4H-benzo[f][1,2,4]triazolo[4,3-a][1,4]diazepin-4-yl)propionate] the Duration was 14.42 min and the Latency was 0.74 min.

Same assay, conditions: 60 mg/kg, single rapid bolus via tail vein
In the case of COC(=O)CC[C@@H]1N=C(c2ccccc2Cl)c2cc([N+](=O)[O-])ccc2-n2c(SCCN3CCN(C)CC3)nnc21 [Compound 92, methyl (S)-3-(8-nitro-6-(2-chlorophenyl)-1-((2-(4-methylpiperazin-1-yl)ethyl)thio)-4H-benzo[f][1,2,4]triazolo[4,3-a][1,4]diazepin-4-yl)propionate], the Duration was 10.12 min and the Latency was 2.00 min. In the case of COC(=O)CC[C@@H]1N=C(c2ccccc2Cl)c2cc(Br)ccc2-n2c(SC3CCN(C)CC3)nnc21 [Compound 94, methyl (S)-3-(8-bromo-6-(2-chlorophenyl)-1-((1-methylpiperidin-4-yl)thio)-4H-benzo[f][1,2,4]triazolo[4,3-a][1,4]diazepin-4-yl)propionate], the Duration was 13.85 min and the Latency was 0.61 min. Molecule COC(=O)CC[C@@H]1N=C(c2ccccc2Cl)c2cc(Cl)ccc2-n2c(SCN3CCOCC3)nnc21 [Compound 99, methyl (S)-3-(8-chloro-6-(2-chlorophenyl)-1-((morpholinomethyl)thio)-4H-benzo[f][1,2,4]triazolo[4,3-a][1,4]diazepin-4-yl)propionate] has a Duration of 19.37 min and a Latency of 2.63 min.
